Columns and labels:
Test in all cases: KINOMEscan competition binding
Settings in all cases: compound 2.0 µM
[1] = target: ACVR2A (human) (UniProt P27037)
[2] = target: AKT1 (human) (UniProt P31749)
[3] = target: ALK (human) (UniProt Q9UM73)
[4] = target: BMPR1B (human) (UniProt O00238)
[5] = target: CDC42BPB (human) (UniProt Q9Y5S2)
[6] = target: CDK13 (human) (UniProt Q14004)
[7] = target: CDK14 (human) (UniProt O94921)
[8] = target: CLK4 (human) (UniProt Q9HAZ1)
[9] = tested on: CPK1 (P.falciparum)
[10] = target: CSNK1A1 (human) (UniProt P48729)
[11] = target: DCLK2 (human) (UniProt Q8N568)
[12] = tested on: EGFR (human), P00533 [746-750 del]
[13] = tested on: EGFR (human), P00533 [747-751 del / S ins]
[14] = target: ERBB2 (human) (UniProt P04626)
[15] = tested on: FGFR3 (human), P22607 [G697C]
[16] = target: HUNK (human) (UniProt P57058)
[17] = target: IRAK4 (human) (UniProt Q9NWZ3)
[18] = target: JAK1 JH1 catalytic (human) (UniProt P23458)
[19] = target: MAK (human) (UniProt P20794)
[20] = target: MAP2K4 (human) (UniProt P45985)
[21] = target: MAP3K1 (human) (UniProt Q13233)
[22] = target: MAP3K5 (human) (UniProt Q99683)
[23] = target: MAPK3 (human) (UniProt P27361)
[24] = target: MYLK3 (human) (UniProt Q32MK0)
[25] = target: NEK5 (human) (UniProt Q6P3R8)
[26] = target: PIK3CA (human) (UniProt P42336)
[27] = tested on: PIK3CA (human), P42336 [M1043I]
[28] = target: PIP4K2B (human) (UniProt P78356)
[29] = target: PLK2 (human) (UniProt Q9NYY3)
[30] = target: PRKD3 (human) (UniProt O94806)
[31] = target: RIPK1 (human) (UniProt Q13546)
[32] = target: RIPK2 (human) (UniProt O43353)
[33] = target: RIPK4 (human) (UniProt P57078)
[34] = target: RPS6KA1 KD2 (human) (UniProt Q15418)
[35] = target: SGK110 (human) (UniProt P0C264)
[36] = target: SGK3 (human) (UniProt Q96BR1)
[37] = target: SRPK1 (human) (UniProt Q96SB4)
[38] = target: STK38L (human) (UniProt Q9Y2H1)
[39] = target: TAOK1 (human) (UniProt Q7L7X3)
[40] = target: TEK (human) (UniProt Q02763)
[41] = target: TNIK (human) (UniProt Q9UKE5)
[42] = target: TYRO3 (human) (UniProt Q06418)
[43] = target: ULK1 (human) (UniProt O75385)

Sequence of PIK3CA (human) (P42336 whole entry, looked up): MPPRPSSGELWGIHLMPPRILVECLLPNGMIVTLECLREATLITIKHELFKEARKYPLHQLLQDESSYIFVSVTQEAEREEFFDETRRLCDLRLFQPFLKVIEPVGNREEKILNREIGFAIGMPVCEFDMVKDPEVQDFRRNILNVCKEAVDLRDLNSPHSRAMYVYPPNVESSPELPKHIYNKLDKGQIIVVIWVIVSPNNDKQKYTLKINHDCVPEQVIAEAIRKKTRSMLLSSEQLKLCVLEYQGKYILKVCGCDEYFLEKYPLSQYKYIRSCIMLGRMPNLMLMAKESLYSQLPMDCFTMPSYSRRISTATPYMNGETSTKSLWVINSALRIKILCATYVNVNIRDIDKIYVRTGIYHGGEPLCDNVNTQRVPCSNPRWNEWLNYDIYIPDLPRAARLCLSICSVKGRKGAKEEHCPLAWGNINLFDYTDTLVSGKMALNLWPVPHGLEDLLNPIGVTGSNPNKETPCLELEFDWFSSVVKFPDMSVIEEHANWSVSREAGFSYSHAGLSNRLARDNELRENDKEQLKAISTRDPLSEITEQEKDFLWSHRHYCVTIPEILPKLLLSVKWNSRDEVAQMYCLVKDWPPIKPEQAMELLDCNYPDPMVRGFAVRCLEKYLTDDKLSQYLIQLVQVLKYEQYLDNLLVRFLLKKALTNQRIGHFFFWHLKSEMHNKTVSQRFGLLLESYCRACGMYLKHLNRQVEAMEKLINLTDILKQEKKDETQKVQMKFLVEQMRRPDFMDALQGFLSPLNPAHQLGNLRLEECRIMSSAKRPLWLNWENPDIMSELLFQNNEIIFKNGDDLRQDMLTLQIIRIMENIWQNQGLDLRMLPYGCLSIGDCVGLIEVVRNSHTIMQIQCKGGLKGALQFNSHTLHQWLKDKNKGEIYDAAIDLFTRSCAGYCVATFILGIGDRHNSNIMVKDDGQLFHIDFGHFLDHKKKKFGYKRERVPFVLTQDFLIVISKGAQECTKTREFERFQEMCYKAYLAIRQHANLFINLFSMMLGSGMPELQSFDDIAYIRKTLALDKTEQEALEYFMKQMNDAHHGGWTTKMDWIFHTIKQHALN
Sequence of CDK14 (human) (O94921 whole entry, looked up): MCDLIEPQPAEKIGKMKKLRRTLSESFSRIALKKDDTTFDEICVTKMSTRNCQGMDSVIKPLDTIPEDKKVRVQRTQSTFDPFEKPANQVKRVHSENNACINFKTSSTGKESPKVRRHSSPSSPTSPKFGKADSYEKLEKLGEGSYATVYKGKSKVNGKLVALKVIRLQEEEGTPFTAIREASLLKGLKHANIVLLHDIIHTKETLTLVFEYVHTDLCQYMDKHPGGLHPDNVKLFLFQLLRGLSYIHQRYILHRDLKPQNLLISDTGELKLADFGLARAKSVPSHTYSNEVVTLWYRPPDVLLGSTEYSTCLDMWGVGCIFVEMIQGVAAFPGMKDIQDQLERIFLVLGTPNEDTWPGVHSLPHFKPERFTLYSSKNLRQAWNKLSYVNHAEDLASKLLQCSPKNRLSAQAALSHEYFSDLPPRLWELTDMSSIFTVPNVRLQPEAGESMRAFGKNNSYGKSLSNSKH
Sequence of EGFR (human), P00533 [746-750 del] (P00533 whole entry, looked up, stated change not applied): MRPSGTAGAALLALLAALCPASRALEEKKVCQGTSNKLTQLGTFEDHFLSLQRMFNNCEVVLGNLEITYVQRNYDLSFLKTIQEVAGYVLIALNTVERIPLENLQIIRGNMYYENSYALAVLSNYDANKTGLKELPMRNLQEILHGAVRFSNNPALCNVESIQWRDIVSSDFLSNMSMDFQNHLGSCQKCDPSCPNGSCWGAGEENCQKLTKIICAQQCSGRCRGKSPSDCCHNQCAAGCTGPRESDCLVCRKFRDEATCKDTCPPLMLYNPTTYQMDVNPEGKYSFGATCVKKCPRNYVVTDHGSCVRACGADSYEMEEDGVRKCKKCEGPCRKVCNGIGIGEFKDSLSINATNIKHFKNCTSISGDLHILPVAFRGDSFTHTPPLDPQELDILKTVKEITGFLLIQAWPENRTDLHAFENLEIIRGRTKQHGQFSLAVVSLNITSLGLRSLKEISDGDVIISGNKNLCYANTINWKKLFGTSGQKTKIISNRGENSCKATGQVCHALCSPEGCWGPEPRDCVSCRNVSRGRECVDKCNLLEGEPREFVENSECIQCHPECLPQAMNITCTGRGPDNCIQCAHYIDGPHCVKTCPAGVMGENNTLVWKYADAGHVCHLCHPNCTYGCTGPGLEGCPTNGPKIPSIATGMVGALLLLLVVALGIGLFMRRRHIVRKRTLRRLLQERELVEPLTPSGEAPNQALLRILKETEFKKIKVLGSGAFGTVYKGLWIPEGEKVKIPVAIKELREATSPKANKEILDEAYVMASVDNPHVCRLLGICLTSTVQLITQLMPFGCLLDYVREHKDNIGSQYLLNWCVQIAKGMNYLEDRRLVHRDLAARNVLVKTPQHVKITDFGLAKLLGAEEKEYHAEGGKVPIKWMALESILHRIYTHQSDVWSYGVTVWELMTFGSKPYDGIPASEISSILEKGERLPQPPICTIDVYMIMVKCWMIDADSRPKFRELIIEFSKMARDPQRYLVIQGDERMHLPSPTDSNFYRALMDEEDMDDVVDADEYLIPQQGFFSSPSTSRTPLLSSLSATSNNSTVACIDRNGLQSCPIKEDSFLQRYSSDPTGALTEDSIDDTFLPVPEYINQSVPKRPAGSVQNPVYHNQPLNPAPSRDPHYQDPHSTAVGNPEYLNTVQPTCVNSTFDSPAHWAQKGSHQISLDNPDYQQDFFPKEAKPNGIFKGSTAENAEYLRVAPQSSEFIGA
Sequence of EGFR (human), P00533 [747-751 del / S ins] (P00533 whole entry, looked up, stated change not applied): as above
Sequence of RIPK4 (human) (P57078 whole entry, looked up): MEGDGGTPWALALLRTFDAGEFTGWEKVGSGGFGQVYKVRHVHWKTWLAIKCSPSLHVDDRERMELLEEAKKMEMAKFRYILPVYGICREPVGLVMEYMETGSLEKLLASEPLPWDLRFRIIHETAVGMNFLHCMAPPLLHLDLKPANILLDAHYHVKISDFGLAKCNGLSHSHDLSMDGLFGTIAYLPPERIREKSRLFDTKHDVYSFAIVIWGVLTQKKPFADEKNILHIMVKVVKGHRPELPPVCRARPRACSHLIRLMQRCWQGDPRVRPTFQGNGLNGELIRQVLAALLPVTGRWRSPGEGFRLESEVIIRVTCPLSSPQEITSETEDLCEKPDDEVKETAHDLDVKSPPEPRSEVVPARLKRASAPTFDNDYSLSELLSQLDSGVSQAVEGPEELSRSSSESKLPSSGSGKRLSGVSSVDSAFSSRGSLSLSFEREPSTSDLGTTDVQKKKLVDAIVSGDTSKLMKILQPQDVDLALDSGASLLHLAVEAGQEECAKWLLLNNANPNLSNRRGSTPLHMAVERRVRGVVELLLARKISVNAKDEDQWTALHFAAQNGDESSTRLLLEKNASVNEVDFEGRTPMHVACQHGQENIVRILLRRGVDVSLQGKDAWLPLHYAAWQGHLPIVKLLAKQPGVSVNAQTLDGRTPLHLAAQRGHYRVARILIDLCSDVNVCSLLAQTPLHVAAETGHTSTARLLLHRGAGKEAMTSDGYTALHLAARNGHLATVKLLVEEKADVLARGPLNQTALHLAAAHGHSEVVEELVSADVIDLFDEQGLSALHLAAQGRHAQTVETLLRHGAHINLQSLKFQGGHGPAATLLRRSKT
Sequence of PIK3CA (human), P42336 [M1043I] (P42336 whole entry M1043I, looked up): as the sequence (P42336 whole entry, looked up) above, with M1043I counted along it

## N#Cc1ccc2ncnc(NCCc3ccc4ccccc4c3)c2c1
[1]
  kinase still bound, per cent of control: 100%
[2]
  kinase still bound, per cent of control: 81%
[3]
  kinase still bound, per cent of control: 100%
[4]
  kinase still bound, per cent of control: 90%
[5]
  kinase still bound, per cent of control: 100%
[6]
  kinase still bound, per cent of control: 100%
[7]
  kinase still bound, per cent of control: 100%
[8]
  kinase still bound, per cent of control: 60%
[9]
  kinase still bound, per cent of control: 95%
[10]
  kinase still bound, per cent of control: 87%
[11]
  kinase still bound, per cent of control: 100%
[12]
  kinase still bound, per cent of control: 100%
[13]
  kinase still bound, per cent of control: 71%
[14]
  kinase still bound, per cent of control: 94%
[15]
  kinase still bound, per cent of control: 100%
[16]
  kinase still bound, per cent of control: 100%
[17]
  kinase still bound, per cent of control: 100%
[18]
  kinase still bound, per cent of control: 59%
[19]
  kinase still bound, per cent of control: 99%
[20]
  kinase still bound, per cent of control: 89%
[21]
  kinase still bound, per cent of control: 92%
[22]
  kinase still bound, per cent of control: 95%
[23]
  kinase still bound, per cent of control: 95%
[24]
  kinase still bound, per cent of control: 79%
[25]
  kinase still bound, per cent of control: 70%
[26]
  kinase still bound, per cent of control: 78%
[27]
  kinase still bound, per cent of control: 93%
[28]
  kinase still bound, per cent of control: 100%
[29]
  kinase still bound, per cent of control: 98%
[30]
  kinase still bound, per cent of control: 99%
[31]
  kinase still bound, per cent of control: 85%
[32]
  kinase still bound, per cent of control: 100%
[33]
  kinase still bound, per cent of control: 100%
[34]
  kinase still bound, per cent of control: 88%
[35]
  kinase still bound, per cent of control: 79%
[36]
  kinase still bound, per cent of control: 100%
[37]
  kinase still bound, per cent of control: 100%
[38]
  kinase still bound, per cent of control: 90%
[39]
  kinase still bound, per cent of control: 96%
[40]
  kinase still bound, per cent of control: 100%
[41]
  kinase still bound, per cent of control: 97%
[42]
  kinase still bound, per cent of control: 87%
[43]
  kinase still bound, per cent of control: 100%
